According to EP0450515B1, “Haloethyl-substituted steroidal enzyme inhibitors” (MERRELL DOW PHARMACEUTICALS INC., priority 1990, dated 1991):

Biological target: T1, aromatase (Homo sapiens, UniProt P11511)
T1 construct: aromatase preparation, usually 50-800 »g of microsomal protein per ml of assay buffer; from tissue; host or cells: microsomes
T1 sequence (P11511 1-503): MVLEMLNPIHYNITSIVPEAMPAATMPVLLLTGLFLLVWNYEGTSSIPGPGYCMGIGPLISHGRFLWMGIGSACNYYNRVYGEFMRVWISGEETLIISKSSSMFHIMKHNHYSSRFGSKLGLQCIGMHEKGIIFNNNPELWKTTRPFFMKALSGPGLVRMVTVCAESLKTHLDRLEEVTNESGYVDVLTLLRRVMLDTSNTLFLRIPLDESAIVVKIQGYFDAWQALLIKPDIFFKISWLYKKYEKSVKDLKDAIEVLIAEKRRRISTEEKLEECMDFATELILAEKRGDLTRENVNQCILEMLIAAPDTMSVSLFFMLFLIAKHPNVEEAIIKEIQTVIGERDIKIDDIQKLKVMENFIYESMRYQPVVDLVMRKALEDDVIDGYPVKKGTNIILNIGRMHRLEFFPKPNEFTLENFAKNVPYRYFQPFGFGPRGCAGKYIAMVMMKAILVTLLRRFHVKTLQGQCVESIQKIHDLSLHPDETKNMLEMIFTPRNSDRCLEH
Experiment: time-dependent aromatase inhibition assay (preincubation of inhibitor with enzyme, Kitz-Wilson analysis)
Type: biochemical
Conditions: for τ50: half-time of inactivation at infinite inhibitor concentration, Kitz-Wilson plots, time-dependent assay; for kinact/KI: ratio of kcat/Ki (inactivation), index of efficiency of enzyme inactivation
Experimental: In this assay, the inhibitor is preincubated with enzyme prior to assaying for activity in the presence of high substrate levels. A time-related decrease in enzyme activity can be indicative of irreversible binding of the inhibitor with the enzyme.
In the time-dependent assay, an amount of the enzyme inhibitor in 100 »l of the assay buffer described above which will provide assay concentrations which are usually between 1 nM and 10 »M are added to 35 ml centrifuge tubes containing 600 »l of the NADPH generating system. The pre-incubation is started by the addition of 700 »l of aromatase preparation, usually 50-800 »g of microsomal protein per ml of assay buffer. These preparations are mixed using a vortex mixer and incubated for 0, 5, 10, or 20 minutes at 25°C. Then 100 »l of androstenedione (∼6.8 »M) containing 1β-³H androstenedione in assay buffer is added to provide an assay concentration of substrate (0.50 »M) which is at least ten times the Km of androstenedione (0.04 »M). Following vortexing, the enzyme incubation is continued for 10 minutes before being terminated by the addition of chloroform. The amount of radioactivity in the aqueous fraction is determined by scintillation procedures. The enzymatic activity for each concentration of inhibitor at each time period of preincubation is calculated as a percent of the respective vehicle control which is arbitrarily set at 100%. Therefore, the relative present enzyme inhibition is expressed as a percentage: (100 percent minus percent enzyme activity with inhibitor present).
Enzyme kinetic analysis utilized Kitz-Wilson plots for time-dependent assays. These analyses provide estimates of apparent Ki of inactivation which represents the inhibitor concentration required to produce half-maximal rate of enzyme inactivation. The pseudo first-order rate constant for enzyme inactivation (kcat) and the half-time of inactivation (τ₅₀) of infinite inhibitor concentrations were determined.

| SMILES | Ki | τ50 | kinact/KI |
| --- | --- | --- | --- |
| C[C@]12CC[C@H]3[C@@H](CCC4=CC(=O)CC[C@@]43C(O)CI)[C@@H]1CCC2=O (stereo partly drawn) [HOCHCH₂I (R):(S)::9:1, 10-(2-Iodo-1-hydroxyethyl)-estr-4-ene-3,17-dione] | 11 nM | 2.22 min | 490000 M⁻¹ s⁻¹ |
| C[C@]12CC[C@H]3[C@@H](CCC4=CC(=O)CC[C@@]43C(O)CBr)[C@@H]1CCC2=O (stereo partly drawn) [HOCHCH₂Br (S):(R)::9:1, 10-(2-Bromo-1-hydroxyethyl)-estr-4-ene-3,17-dione] | 1130 nM | 5.33 min | – |
| C[C@]12CC[C@H]3[C@@H](CCC4=CC(=O)CC[C@@]43C(O)CBr)[C@@H]1CCC2=O (single isomer, unassigned; diastereomer 10) [HOCHCH₂Br pure (R) diastereomer, 10-(2-Bromo-1-hydroxyethyl)-estr-4-ene-3,17-dione] | 26 nM | 4.85 min | – |
| C[C@]12CC[C@H]3[C@@H](CCC4=CC(=O)CC[C@@]43C(O)CCl)[C@@H]1CCC2=O (stereo partly drawn) [HOCHCH₂Cl (R):(S)::9:1, 10-(2-Chloro-1-hydroxyethyl)-estr-4-ene-3,17-dione] | 63 nM | 3.60 min | 50700 M⁻¹ s⁻¹ |
| C[C@]12CC[C@H]3[C@@H](CCC4=CC(=O)CC[C@@]43C(=O)CBr)[C@@H]1CCC2=O [O=CCH₂Br, 10-(2-Bromoacetyl)-estr-4-ene-3,17-dione] | 190 nM | 32.7 min | 1860 M⁻¹ s⁻¹ |
